Experimental data published in publication PMC4126177, “Molecular docking simulation studies on potent butyrylcholinesterase inhibitors obtained from microbial transformation of dihydrotestosterone” (Chemistry Central Journal, 2013).
Read-outs that look alike come from different tables or passages of the source.

Target: T1, Equine serum BChE (butyrylcholinesterase) (Equus caballus, UniProt P81908)
T1 construct: commercial native enzyme from horse serum (Sigma); docking used human BChE 1P0P, not the assayed protein
T1 sequence (P81908 whole entry): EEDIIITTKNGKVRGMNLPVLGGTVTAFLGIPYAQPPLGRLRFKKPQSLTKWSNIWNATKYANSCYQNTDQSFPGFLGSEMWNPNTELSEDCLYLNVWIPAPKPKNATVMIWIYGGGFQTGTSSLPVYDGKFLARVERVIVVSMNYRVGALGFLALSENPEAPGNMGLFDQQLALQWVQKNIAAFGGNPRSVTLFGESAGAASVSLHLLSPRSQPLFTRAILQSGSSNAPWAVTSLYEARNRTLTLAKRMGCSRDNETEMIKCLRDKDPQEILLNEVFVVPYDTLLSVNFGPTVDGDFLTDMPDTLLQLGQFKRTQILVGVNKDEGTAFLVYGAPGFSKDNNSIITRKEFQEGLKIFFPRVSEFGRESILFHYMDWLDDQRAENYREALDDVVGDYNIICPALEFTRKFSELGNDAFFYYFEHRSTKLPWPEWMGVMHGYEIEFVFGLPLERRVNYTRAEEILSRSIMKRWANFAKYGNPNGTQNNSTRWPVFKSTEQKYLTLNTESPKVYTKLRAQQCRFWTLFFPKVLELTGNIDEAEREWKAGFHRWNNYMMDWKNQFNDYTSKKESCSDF
Test: DTNB (Ellman-type) spectrophotometric assay, […] nm
Type: biochemical

Row | SMILES | IC50 [µM] | IC50 (read-out: Mean ± SEM^ a [ μ M]) [µM]
1 | C[C@]12C=CC(=O)C=C1CC[C@@H]1[C@@H]2CC[C@]2(C)C(=O)CC[C@@H]12 [compound 5, Androst-1,4-dien-3,17-dione] | 11.8 ± 0.5 | 
2 | C[C@]12CCC(=O)C=C1CC[C@@H]1[C@@H]2[C@H](O)C[C@]2(C)C(=O)CC[C@@H]12 [compound 6, 11α-Hydroxyandrost-4-en-3,17-dione] |  | 20.5 ± 0.2
